Experimental data from patent US11078198B2 (BRISTOL-MYERS SQUIBB COMPANY, priority 2017, dated 2021).

Molecular target: T1, human FXR (Homo sapiens, UniProt Q96RI1)
T1 construct: expressed in transfected cells; host or cells: HEK293 cells stably carrying a 5xGal4-response-element firefly luciferase reporter, transiently transfected with pcDNA3.1-Gal4-FXR
T1 sequence (Q96RI1 262-486 limits assumed): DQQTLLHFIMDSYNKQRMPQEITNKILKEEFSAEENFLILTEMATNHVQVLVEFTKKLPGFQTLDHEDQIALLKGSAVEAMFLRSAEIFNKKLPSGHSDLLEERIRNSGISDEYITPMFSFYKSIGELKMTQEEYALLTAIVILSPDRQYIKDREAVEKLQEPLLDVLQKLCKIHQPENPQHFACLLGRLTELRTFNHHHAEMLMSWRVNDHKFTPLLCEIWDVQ
Experiment: transient human FXR/Gal4-luciferase reporter assay
Type: cell-based
Conditions: Gal4-hFXR transfected HEK293 reporter cells; relative to 8 μM GW-4064
Protocol: A Gal4-hFXR fusion construct reporter system was used as the primary assay to characterize compound activity. A construct including 5 copies of the Gal4 promoter response element upstream of a firefly luciferase reporter cDNA was stably expressed in HEK293 cells. This reporter cell line was maintained in Dulbecco's Modified Eagle's medium (DMEM; Gibco) supplemented with 1% penicillin-streptomycin (P/S) solution, 500 μg/mL Zeocin and 10% charcoal/dextran-treated fetal bovine serum (cs-FBS) at 37° C. in a humidified 5% CO2 atmosphere. Another plasmid was constructed in which the human cytomegalovirus promoter in the pcDNA3.1 vector directs the expression of the cDNA encoding a fusion protein comprised of the DNA binding domain from the Gal4 transcription factor fused to the ligand binding domain from human FXR.
The day prior to transfection, the reporter cells in culture are detached from the plate with trypsin and plated into a T75 flask at a sufficient density to achieve approximately 90% confluence the next morning. The transfection reagents are prepared by separately diluting 25 μg of the pcDNA3.1-Gal4-FXR plasmid into 1.87 mL of Opti-MEM (Thermo-Fisher), and 40 μL of Lipofectamine 2000 (Thermo-Fisher) into 1.87 mL of Opti-MEM, and then adding the diluted DNA solution into the diluted Lipofectamine 2000 solution and incubating at room temperature for 15-20 minutes. The mixture is further diluted with 10 mL of a solution comprised of DMEM, 10% cs-FBS, and 1% P/S immediately prior to transferring to the cells. The maintenance culture media is aspirated from the cells and the final transfection mixture is added before the cells are incubated overnight at 37° C. in a humidified 5% CO2 atmosphere. This protocol can be scaled up, and the transiently transfected cells can be cryopreserved in an assay-ready format.
For compound testing, 100 nL of the compounds (serial dilutions in DMSO) are dispensed with an Echo acoustic dispenser (Labcyte) into the wells of a Corning/Costar clear bottom 384-well white plate. The transfected cells are harvested, counted, and diluted such that 10-25,000 cells in 25 μL are plated into each well of the 384-well compound assay plate. The compound-treated cells are incubated overnight at 37° C. in a humidified 5% CO2 atmosphere.

O=C(NS(=O)(=O)C1CC1)c1cc(C(F)(F)F)c2cc(N3CCC4(C=C(c5c(-c6c(Cl)cncc6Cl)noc5C5CC5)C4)CC3)ccc2n1 [Example 183, 6-(2-(5-Cyclopropyl-3-(3,5-dichloropyridin-4-yl)isoxazol-4-yl)-7-azaspiro[3.5]non-1-en-7-yl)-N-(cyclopropylsulfonyl)-4-(trifluoromethyl)quinoline-2-carboxamide]
EC50: 55 nM

O=C(O)c1cc(F)c2nc(OC3CCC4(CC3)CC(O)(c3c(-c5c(Cl)cccc5Cl)noc3C3CC3)C4)sc2c1 (centres unmarked) [Example 205, 2-((2-(5-Cyclopropyl-3-(2,6-dichlorophenyl)isoxazol-4-yl)-2-hydroxyspiro[3,5]nonan-7-yl)oxy)-4-fluorobenzo[d]thiazole-6-carboxylic acid]
EC50: 2620 nM

CCOC(=O)c1cc(F)c2nc(N3[C@@H]4CC[C@H]3C[C@@]3(COC(c5c(-c6c(Cl)cccc6Cl)noc5C5CC5)O3)C4)sc2c1 (stereo partly drawn) [Example 40, Ethyl 2-((1R,3S,5S)-2′-(5-cyclopropyl-3-(2,6-dichlorophenyl)isoxazol-4-yl)-8-azaspiro[bicyclo[3.2.1]octane-3,4′-[1,3]dioxolan]-8-yl)-4-fluorobenzo[d]thiazole-6-carboxylate]
EC50: 3400 nM

O=C(O)c1cc(F)c2nc(N3C4CCC3CC3(CC(c5c(-c6c(Cl)cccc6Cl)noc5C5CC5)C3)C4)sc2c1 (centres unmarked) [Example 15, 2-(3′-(5-Cyclopropyl-3-(2,6-dichlorophenyl)isoxazol-4-yl)-8-azaspiro[bicyclo[3.2.1]octane-3,1′-cyclobutan]-8-yl)-4-fluorobenzo[d]thiazole-6-carboxylic acid]
EC50: 301 nM

CCOc1cc(C(=O)O)nc2ccc(N3CCC4(C=C(c5c(C6CCCCC6)noc5C5CC5)C4)CC3)cc12 [Example 167, 6-(2-(3-Cyclohexyl-5-cyclopropylisoxazol-4-yl)-7-azaspiro[3.5]non-1-en-7-yl)-4-ethoxyquinoline-2-carboxylic acid]
EC50: 3100 nM

O=C(O)c1cc(F)c2nc(N3CCC4(C=C(c5c(C6CC6)nnn5-c5c(Cl)cccc5Cl)C4)CC3)sc2c1 [Example 204, 2-(2-(4-Cyclopropyl-1-(2,6-dichlorophenyl)-1H-1,2,3-triazol-5-yl)-7-azaspiro[3.5]non-1-en-7-yl)-4-fluorobenzo[d]thiazole-6-carboxylic acid]
EC50: 26 nM

O=C(O)c1cc(F)c2nc(N3CCC4(C=C(c5c(-c6c(Cl)cc(F)cc6Cl)noc5C5CC5)C4)CC3)sc2c1 [Example 48, 2-(2-(5-Cyclopropyl-3-(2,6-dichloro-4-fluorophenyl)isoxazol-4-yl)-7-azaspiro[3.5]non-1-en-7-yl)-4-fluorobenzo[d]thiazole-6-carboxylic acid]
EC50: 115 nM

O=C(O)c1cc(C(F)(F)F)c2cc(N3CCC4(C=C(c5c(C(C6CC6)C6CC6)noc5C5CC5)C4)CC3)ccc2n1 [Example 212, 6-(2-(5-Cyclopropyl-3-(dicyclopropylmethyl)isoxazol-4-yl)-7-azaspiro[3.5]non-1-en-7-yl)-4-(trifluoromethyl)quinoline-2-carboxylic acid]
EC50: 1550 nM

Cn1nc(C#N)c2ccc(N3CCC4(C=C(c5c(-c6ccccc6OC(F)(F)F)noc5C5CC5)C4)CC3)cc21 [Example 175, 6-(2-(5-Cyclopropyl-3-(2-(trifluoromethoxy)phenyl)isoxazol-4-yl)-7-azaspiro[3.5]non-1-en-7-yl)-1-methyl-1H-indazole-3-carbonitrile]
EC50: 3240 nM

O=C(O)c1ccc2cc(N3CCC4(C=C(c5c(-c6ccncc6Cl)noc5C5CC5)C4)CC3)ccc2n1 [Example 150, 6-(2-(3-(3-Chloropyridin-4-yl)-5-cyclopropylisoxazol-4-yl)-7-azaspiro[3.5]non-1-en-7-yl)quinoline-2-carboxylic acid]
EC50: 4350 nM

O=C(O)c1ccc(N2CCC3(C=C(c4c(-c5c(Cl)cncc5Cl)noc4C4CC4)C3)CC2)nc1 [Example 66, 6-(2-(5-Cyclopropyl-3-(3,5-dichloropyridin-4-yl)isoxazol-4-yl)-7-azaspiro[3.5]non-1-en-7-yl)nicotinic acid]
EC50: 342 nM

Cn1nc(C(=O)O)c2ccc(N3CCC4(C=C(c5c(-c6ccccc6OC(F)(F)F)noc5C5CC5)C4)CC3)cc21 [Example 165, 6-(2-(5-Cyclopropyl-3-(2-(trifluoromethoxy)phenyl)isoxazol-4-yl)-7-azaspiro[3.5]non-1-en-7-yl)-1-methyl-1H-indazole-3-carboxylic acid]
EC50: 2980 nM

O=C(O)c1cc2ccc(N3CCC4(C=C(c5c(-c6c(Cl)cccc6Cl)noc5C5CC5)C4)CC3)cc2nn1 [Example 53, 7-(2-(5-Cyclopropyl-3-(2,6-dichlorophenyl)isoxazol-4-yl)-7-azaspiro[3.5]non-1-en-7-yl)cinnoline-3-carboxylic acid]
EC50: 46 nM

CS(=O)(=O)NC(=O)c1cc(OC(F)F)c2cc(N3CCC4(C=C(c5c(-c6cccnc6C(F)(F)F)noc5C5CC5)C4)CC3)ccc2n1 [Example 192, 6-(2-(5-Cyclopropyl-3-(2-(trifluoromethyl)pyridin-3-yl)isoxazol-4-yl)-7-azaspiro[3.5]non-1-en-7-yl)-4-(difluoromethoxy)-N-(methylsulfonyl)quinoline-2-carboxamide]
EC50: 238 nM

O=C(O)c1ccc2cc(N3CCC4(C=C(c5c(-c6cccnc6C(F)(F)F)noc5C5CC5)C4)CC3)ccc2n1 [Example 153, 6-(2-(5-Cyclopropyl-3-(2-(trifluoromethyl)pyridin-3-yl)isoxazol-4-yl)-7-azaspiro[3.5]non-1-en-7-yl)quinoline-2-carboxylic acid]
EC50: 1280 nM

O=C(O)c1cnc(N2CCC3(C=C(c4c(-c5c(Cl)cccc5Cl)noc4C4CC4)C3)CC2)nc1 [Example 118, 2-(2-(5-Cyclopropyl-3-(2,6-dichlorophenyl)isoxazol-4-yl)-7-azaspiro[3.5]non-1-en-7-yl)pyrimidine-5-carboxylic acid]
EC50: 171 nM

O=C(O)c1ccc(N2CCC3(C=C(c4c(-c5c(Cl)cccc5Cl)noc4C4CC4)C3)CC2)nn1 [Example 5, 6-(2-(5-Cyclopropyl-3-(2,6-dichlorophenyl)isoxazol-4-yl)-7-azaspiro[3.5]non-1-en-7-yl)pyridazine-3-carboxylic acid]
EC50: 313 nM

CC(C)Oc1cc(C(=O)O)nc2ccc(N3CCC4(C=C(c5c(-c6c(Cl)cncc6Cl)noc5C5CC5)C4)CC3)cc12 [Example 111, 6-(2-(5-Cyclopropyl-3-(3,5-dichloropyridin-4-yl)isoxazol-4-yl)-7-azaspiro[3.5]non-1-en-7-yl)-4-isopropoxyquinoline-2-carboxylic acid]
EC50: 47 nM

CS(=O)(=O)NC(=O)c1cc(F)c2nc(N3CCC4(C=C(c5c(-c6c(Cl)cncc6Cl)noc5C5CC5)C4)CC3)sc2c1 [Example 182, 2-(2-(5-Cyclopropyl-3-(3,5-dichloropyridin-4-yl)isoxazol-4-yl)-7-azaspiro[3.5]non-1-en-7-yl)-4-fluoro-N-(methylsulfonyl)benzo[d]thiazole-6-carboxamide]
EC50: 688 nM

O=C(NS(=O)(=O)C1CC1)c1cc(F)c2nc(N3CCC4(C=C(c5c(-c6c(Cl)cncc6Cl)noc5C5CC5)C4)CC3)sc2c1 [Example 181, 2-(2-(5-Cyclopropyl-3-(3,5-dichloropyridin-4-yl)isoxazol-4-yl)-7-azaspiro[3.5]non-1-en-7-yl)-N-(cyclopropylsulfonyl)-4-fluorobenzo[d]thiazole-6-carboxamide]
EC50: 60 nM

O=C(O)c1cc(C(F)(F)F)c2cc(N3CCC4(C=C(c5c(-c6c(F)cccc6Cl)noc5C5CC5)C4)CC3)ccc2n1 [Example 88, 6-(2-(3-(2-Chloro-6-fluorophenyl)-5-cyclopropylisoxazol-4-yl)-7-azaspiro[3.5]non-1-en-7-yl)-4-(trifluoromethyl)quinoline-2-carboxylic acid]
EC50: 150 nM

Cn1cc(C(=O)O)c2cnc(N3CCC4(C=C(c5c(-c6c(Cl)cccc6Cl)noc5C5CC5)C4)CC3)cc21 [Example 117, 6-(2-(5-Cyclopropyl-3-(2,6-dichlorophenyl)isoxazol-4-yl)-7-azaspiro[3.5]non-1-en-7-yl)-1-methyl-1H-pyrrolo[3,2-c]pyridine-3-carboxylic acid]
EC50: 139 nM

Cc1cccc(Cl)c1-c1noc(C2CC2)c1C1=CC2(CCN(c3ccc4nc(C(=O)O)ccc4c3)CC2)C1 [Example 157, 6-(2-(3-(2-Chloro-6-methylphenyl)-5-cyclopropylisoxazol-4-yl)-7-azaspiro[3.5]non-1-en-7-yl)quinoline-2-carboxylic acid]
EC50: 223 nM
